The text below walks through data of PubChem BioAssay AID467 (The Scripps Research Institute Molecular Screening Center, 2006).

Usually EC50 stands for the midpoint of the concentration-response curve.

Active and inactive are the calls of the source. The rule behind the calls is not given here.

For the assay, the system named is parental cell line counter screen, S1P1 agonist assay readout. As to the kind of experiment: signal in parental cells, counter-screen for S1P1 agonist project (AID 467).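 Note: agonist potency measured against forskolin stimulation plus an EC20 level of SEW2871.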
`COc1ccccc1-c1nc(-c2cccc(C)c2)no1`: the EC50 was > 95.1 µM (inactive). Regarding `CCOc1nc(-c2ccccc2)ccc1-c1noc(-c2ccco2)n1`, the EC50 was > 95.1 µM (inactive). As to `Cc1cccc(N2CCN(C(=O)CSCc3c(C)noc3C)CC2)c1C`, the EC50 was > 30 µM (inactive). For the molecule `Cc1csc(NC(=O)c2nc(-c3ccccc3)n(-c3ccccc3)n2)n1`, the EC50 was > 95.1 µM (inactive). For the molecule `O=C(Nc1nc(-c2nc3ccccc3s2)cs1)c1ccc(S(=O)(=O)N2CCOCC2)cc1`, the EC50 is 27.5 µM (inactive). Next, `Cc1ccc(-c2nnc(SCc3ccccc3F)o2)cc1`: > 95.1 µM (inactive); `CC(C)Cc1cc(C(=O)Nc2sc3c(c2C#N)CCCC3)no1`: > 95.1 µM (inactive). On to `Oc1ccc(C2NCc3ccccc3-n3cccc32)cc1Cl` (stereo not given), for which the EC50 is > 30 µM (inactive). On to `Cc1ccc(-c2nc(CSCC(=O)N3CCN(c4ccccn4)CC3)c(C)o2)cc1`, for which the EC50 is > 30 µM (inactive). As for `Cc1cc(C(=O)CSc2nnc(-c3ccccc3)n2-c2ccccc2)c(C)n1-c1ncn[nH]1`, the EC50 was > 95.1 µM (inactive). In the case of `CCc1ccc2oc(-c3cc(N)cc(C)c3O)nc2c1`, the EC50 was > 95.1 µM (inactive). Next, `CCOc1cc(C2NCc3ccccc3-n3cccc32)ccc1O` (stereo not given): > 95.1 µM (inactive); `Nc1ccc(N2CCOCC2)c(Cl)c1`: > 95.1 µM (inactive); `COc1ccc(S(=O)(=O)Cc2ccc(C(=O)N3CCN(c4ccc(Cl)cc4)CC3)o2)cc1`: > 30 µM (inactive). `COc1ccc2ncn(-c3ccccc3)c2c1`: the EC50 was > 95.1 µM (inactive).

Turning to `CCOc1ccc(-c2nc(-c3ccccc3C)no2)cc1`, the EC50 was > 95.1 µM (inactive). With `O=C(Nc1c(F)cc(F)cc1Br)c1cc(-c2ccc(O)cc2)on1`, the EC50 was 53.6 µM (inactive).

`CC1=C(C(=O)OCc2ccc3c(c2)OCO3)C(c2ccccc2)NC(=O)N1` (stereo not given): the EC50 is > 10 µM (inactive). Take `Cc1csc(SCC(=O)c2cc(C)n(Cc3cccs3)c2C)n1`: the EC50 is 38.8 µM (inactive). With `COc1ccc(-n2c(C)cc(C(=O)COC(=O)Cn3cnc4ccccc43)c2C)cc1` the figure was > 30 µM (inactive); with `CCOC(=O)c1cccc2c1-c1ccccc1/C2=N/O`, 12 µM (inactive). Turning to `CCOc1ccc(C(=O)Nc2c(C(N)=O)oc3ccccc23)cc1`, the EC50 is > 95.1 µM (inactive).

As to `O=C(c1ccco1)N1CCN(c2ncnc3c2[nH]c2ccc(Br)cc23)CC1`, the EC50 is > 10 µM (inactive). Consider `CCN(CC)c1ccc(-n2c(C)c(C(C)=O)c(C(C)=O)c2C)cc1`, for which the EC50 is > 95.1 µM (inactive). With `CCOc1ccc(C(=O)Nc2ccc(Cl)cn2)cc1Cl`, the EC50 is > 95.1 µM (inactive). As to `Fc1ccc2[nH]c3c(N4CCN(c5ccccc5)CC4)ncnc3c2c1`, the EC50 is 18.5 µM (inactive). With `Cc1nnc(SC(=O)N2c3ccccc3Sc3ccccc32)s1` the figure was 3.42 µM; with `CCC(NC(=O)Nc1nnc(C(F)(F)F)s1)(C(F)(F)F)C(F)(F)F`, > 95.1 µM (inactive); with `COc1ccc(N2CCn3c2nc2c3c(=O)n(CCCc3ccccc3)c(=O)n2C)c(OC)c1`, > 10 µM (inactive). In the case of `Clc1ccc(OCCN2CCN(c3ncnc4sccc34)CC2)cc1`, the EC50 was 2.63 µM. `C=CCN1C(=Nc2cccnc2)SCC1(O)c1ccc(C)cc1` (stereo not given): the EC50 is 31.9 µM (inactive).

For `CCn1nc(-c2ccccc2)nc2c(=O)n(C)c(=O)nc1-2`, the EC50 is 2.09 µM. On to `Cc1cc(/C=N/n2cnnc2)c(C)n1-c1ccc(OCc2ccc(F)cc2)cc1`, for which the EC50 is 6.71 µM.

With `N#CCCS(=O)(=O)c1nnnn1-c1ccccc1`, the EC50 was 1.34 µM. Turning to `Cc1ccccc1OCC(=O)Nc1ccc(N2CCN(C(=O)C(C)C)CC2)c(Cl)c1`, the EC50 was 26 µM (inactive).

As for `Cc1nnc2ccc(Oc3ccc(-c4ccccc4)cc3)nn12`, the EC50 is > 30 µM (inactive). Regarding `CC(C)(C)OC(=O)N[C@@H](Cc1ccccc1)c1nnc(S(=O)(=O)Cc2ccccc2)o1`, the EC50 was 1.51 µM.

In the case of `Cc1nn(C(=O)c2cccs2)c(N)c1-c1ccccc1`, the EC50 was > 30 µM (inactive). Consider `COCCn1c(C)cc(C(=O)CSc2nnc(-c3cccnc3)n2-c2ccccc2F)c1C`, for which the EC50 was > 95.1 µM (inactive).

In the case of `Cc1oc(-c2ccccc2)nc1Cn1cccc1C1=NC(c2ccccc2)CO1` (stereo not given), the EC50 is > 95.1 µM (inactive). In the case of `Cc1nc2ccccc2c2oc(C(=O)NCC3COc4ccccc4O3)cc12` (stereo not given), the EC50 is 20.2 µM (inactive). Regarding `Cn1ncnc2c(=O)n(C)c(=O)nc1-2`, the EC50 was 1.8 µM. Regarding `COC(=O)c1ccc(CSc2nc3ccccc3c(=O)n2Cc2ccco2)o1`, the EC50 is > 95.1 µM (inactive). With `CCOC(=O)CN(C(=O)CSc1nnc(-c2cccc(OC)c2)o1)c1ccc(F)cc1`, the EC50 is > 95.1 µM (inactive).

Take `O=C1C2CCCN2C(c2cccnc2)N1c1cccc(Cl)c1` (stereo not given): the EC50 is > 95.1 µM (inactive). As for `Nn1c(Nc2ccccc2)nc2sc3c(c2c1=O)CCC3`, the EC50 was > 30 µM (inactive). As for `CC(C)[C@H](NC(=O)OC(C)(C)C)c1nnc(SCC(=O)Nc2ccc(Br)cc2)o1`, the EC50 was > 30 µM (inactive).

As to `C=CCn1c(C)cc(C(=O)CSc2nc3ccccc3o2)c1C`, the EC50 was > 30 µM (inactive). For the molecule `CCOC(=O)c1ccc2c(c1)C(=O)N(C1CCCCC1)C2=O`, the EC50 was > 95.1 µM (inactive). For the molecule `CCOC(=O)c1sc2nc(NC(=O)C3CCCCC3)sc2c1C`, the EC50 is > 95.1 µM (inactive). For the molecule `CN1c2ccccc2C(C)(C)C12C=Cc1cc(O)ccc1O2` (stereo not given), the EC50 is > 10 µM (inactive). Take `CCN(C1CCCCC1)S(=O)(=O)c1ccc(S(=O)(=O)NCc2ccncc2)cc1`: the EC50 is 76.5 µM (inactive). In the case of `CC1CCc2nc(NC(=O)CSc3nc4ccccc4o3)sc2C1` (stereo not given), the EC50 is > 95.1 µM (inactive). In the case of `CC(C)Oc1cc(O)c2c(=O)c(-c3ccc(O)cc3)coc2c1`, the EC50 was 20.5 µM (inactive).

In the case of `Cc1nn(Cc2ccc(Cl)c(Cl)c2)c(C)c1NC(=O)c1cc(C2CC2)on1`, the EC50 was 41.2 µM (inactive). Consider `CCOC(=O)c1sc2nc(NC(=O)C(C)(C)C)sc2c1C`, for which the EC50 was > 10 µM (inactive). With `Cc1ccnc(SCC(=O)Nc2sc3c(c2C#N)CCCC3)n1`, the EC50 was > 30 µM (inactive). Next, `COc1ccc(S(=O)(=O)N2CCN(c3ccc(C)cc3C)CC2)cc1OC`: 28.4 µM (inactive); `Cc1ccc2c(c1)[nH]c1c(N3CCN(Cc4ccccc4)CC3)ncnc12`: 7.72 µM. Take `COc1ccc(C(c2c(O)ccc3ccccc23)N2CCOCC2)c(OC)c1` (stereo not given): the EC50 was 1.45 µM. Regarding `CCCC(=O)Nc1ccc(-c2nc3cc(C)c(C)cc3o2)cc1`, the EC50 was > 95.1 µM (inactive). On to `O=C(Nc1ccc(S(=O)(=O)NCc2ccco2)cc1)c1ccc2ccccc2n1`, for which the EC50 is > 95.1 µM (inactive). Next, `CCCc1ccc(OCc2nc(-c3ccc(NC(=O)c4ccco4)cc3)no2)cc1`: > 95.1 µM (inactive). Regarding `C=CS(=O)(=O)c1ccc(Oc2ccc(S(=O)(=O)C=C)cc2)cc1`, the EC50 was 1.06 µM. Consider `COc1cccc(-c2nc(-c3ccc(NC(=O)c4cccnc4)cc3)no2)c1`, for which the EC50 is > 95.1 µM (inactive).

For the molecule `Cc1noc(C)c1S(=O)(=O)N(CC(=O)Nc1ccc2c(c1)OCCO2)c1ccc(C(C)C)cc1`, the EC50 is > 95.1 µM (inactive).

Take `CC1Cc2ccccc2N1c1ncnc2nc[nH]c12` (stereo not given): the EC50 is 11.4 µM (inactive). Consider `CCOc1ccc(-c2noc(-c3ccncc3)n2)cc1OCC`, for which the EC50 is > 95.1 µM (inactive). On to `Fc1ccc2[nH]c3c(N4CCSCC4)ncnc3c2c1`, for which the EC50 is 11 µM (inactive). In the case of `Clc1ccc(-c2nc3nc4ccccc4nc3n2Cc2ccco2)cc1`, the EC50 is > 95.1 µM (inactive).

For the molecule `CCN(CC)c1ccc2cc(NC(=O)CCC(=O)O)c(=O)oc2c1`, the EC50 was 6.1 µM. Next, `CC(C)C(c1nnnn1Cc1ccccc1)N(Cc1ccco1)Cc1cccs1` (stereo not given): > 95.1 µM (inactive); `CS(=O)(=O)n1nc(OC(=O)c2cccc3ccccc23)cc1N`: 12 µM (inactive). `Cc1cc(C(=O)CSc2nc3ccccc3c(=O)n2C)c(C)n1Cc1ccc2c(c1)OCO2`: the EC50 is 54.9 µM (inactive). In the case of `Cc1cc(C(=O)CN2C(=O)c3ccccc3C2=O)c(C)n1Cc1cccs1`, the EC50 was > 95.1 µM (inactive). With `CCCCOc1ncnc2c1[nH]c1ccc(F)cc12` the figure was > 95.1 µM (inactive); with `CCC1CCCCN1C(=O)CSc1nnc(-c2c[nH]c3ccccc23)o1` (stereo not given), > 30 µM (inactive). With `Cc1cc(N2CCN(C(c3ccccc3)c3ccccc3)CC2)n2ncnc2n1`, the EC50 is > 30 µM (inactive). Consider `COCCn1c(C)cc(C(=O)CSc2nc3ccccc3c(=O)[nH]2)c1C`, for which the EC50 was > 95.1 µM (inactive). Turning to `CC(=O)c1c(C)[nH]c(C(=O)OCCCCN2C(=O)c3ccccc3C2=O)c1C`, the EC50 was > 10 µM (inactive). With `CN(C)c1oc(-c2ccc(OCc3ccccc3)cc2)nc1C#N`, the EC50 is > 95.1 µM (inactive).

For the molecule `CC(C)(C)NC(=O)CSc1ncnc2c1nnn2Cc1ccccc1Cl`, the EC50 is 7.01 µM. Regarding `COC(=O)CC1SC(=O)NC1=Nc1ccccc1` (stereo not given), the EC50 is > 95.1 µM (inactive).

For the molecule `Cc1ccc(C(=O)Nc2nc(COc3ccccc3)cs2)s1`, the EC50 is 28.9 µM (inactive). Consider `CCOc1ccc(S(=O)(=O)n2cnc3cc(C)c(C)cc32)cc1`, for which the EC50 was > 30 µM (inactive).

With `CC1=C(/C=C/C(C)=C/C=C/C(C)=C/C(=O)O)C(C)(C)CCC1`, the EC50 was > 95.1 µM (inactive). In the case of `O=c1oc2cc(Br)ccc2n1CSC1=NCCS1`, the EC50 is > 10 µM (inactive). Regarding `O=C(c1cc(-c2ccccc2)on1)N1CCN(Cc2ccc3c(c2)OCO3)CC1`, the EC50 is > 30 µM (inactive).

Take `CC(C)(CC(=O)N1CCN(c2ccc(Cl)cc2)CC1)CC1=NS(=O)(=O)c2ccccc2N1`: the EC50 is 19.9 µM (inactive). As to `CCCOC(=O)c1ccc(OCC(O)Cn2c(C)nc3ccccc32)cc1` (stereo not given), the EC50 was > 95.1 µM (inactive).
